Laboratory results reported in patent US20220372162A1, “PCT/US2020/066088” (TeneoFour, Inc., priority 2019, published 2022).
“Also recorded” adds a separate entry of the source.

Key:
[1] = test system: sirtuin activity in CD38 positive Ramos cells; assay: Sirtuin activity assay (SIRT-GLO) in CD38 positive Ramos cells; type: cell-based; settings: 24 h
Text: To quantify sirtuin activity, Promega's one-step SIRT-GLO™ assay was used. The reagent formulation contains an acetylated lysine attached to aminoluciferin, along with a peptide sequence derived from p53. Upon deacetylation of the lysine by a sirtuin, the deacetylated peptide becomes a substrate for the developer reagent present in the reaction mixture. This yields free aminoluciferin that reacts with luciferase to give a luminescent signal that is stable and quantifiable.
CD38 positive Ramos cells were treated with a bispecific, bivalent three chain binding compound as depicted in FIG. 11, Panel D, or isotype control, in a 96 well plate (2×10^5 cells/well). After 24 h, the plate was centrifuged at 500 g for 5 minutes, and the cells were washed with 1×PBS followed by centrifugation. The cell pellet was resuspended in 50 μL of M-PER Mammalian Protein extraction reagent on ice. The cells were transferred to 1.5 mL tubes and homogenized for 30 seconds. The lysate was centrifuged at 14,000 rpm for 5 minutes at 4° C. The supernatant was incubated with 1:30 of anti-SIRT1 antibody (Abcam #32441) for 4 h on a rotator at 4° C. Protein A slurry (25 μL per 50 μL of lysate) was added and further incubated for 2 h at room temperature Immunoprecipitation (IP) buffer (Pierce #28379) was added (500 μL per tube) followed by centrifugation at 2500 g for 2 minutes. The wash step with IP buffer was repeated and 50 μL of IgG elution buffer (Pierce #21004) was added. After 5 minutes of incubation at room temperature, the eluate was centrifuged at 2500 g for 2 minutes. The supernatant was immediately neutralized with 1 M Tris (pH 9), 10 μL per 100 μL eluate. The eluate was used in the SIRT GLO™ assay (Promega #G6450) at a 1:1 ratio with the SIRT GLO™ reagent, per the manufacturer's instructions.
CD38 positive Ramos cells were treated with a bispecific, bivalent three chain binding compound (depicted in FIG. 11, Panel D) in combination with nicotinamide mononucleotide (NMN) at a concentration of 400 nM, or isotype control, in a 96 well plate (2×10^5 cells/well). After 24 h, the plate was centrifuged at 500 g for 5 minutes, and the cells were washed with 1×PBS followed by centrifugation. The cell pellet was resuspended in 50 μL of M-PER Mammalian Protein extraction reagent on ice. The cells were transferred to 1.5 mL tubes and homogenized for 30 seconds. The lysate was centrifuged at 14,000 rpm for 5 minutes at 4° C. The supernatant was incubated with 1:30 of anti-SIRT1 antibody (Abcam #32441) for 4 h on a rotator at 4° C. Protein A slurry (25 μL per 50 μL of lysate) was added and further incubated for 2 h at room temperature Immunoprecipitation (IP) buffer (Pierce #28379) was added (500 μL per tube) followed by centrifugation at 2500 g for 2 minutes. […]

CD4 T cells = assay: T-cell proliferation and IFNγ production in mixed lymphocyte reaction (MLR); type: cell-based
Experimental: Various binding compounds in accordance with embodiments of the invention were assessed for their ability to inhibit CD38 hydrolase activity without activating a mixed lymphocyte reaction (MLR). MLR occurs when MHC mismatched immune cells interact, triggering an immune response by T cell hyperproliferation and exacerbated cytokine release. […] The binding compounds were formulated at a concentration of 0.97 mg/mL in 20 mM Citrate, 100 mM NaCl, pH 6.2. Test substance was stored frozen at −80° C. until the day of use.
Analyses were performed to assess CD4 T cell proliferation and IFNγ production. The results are depicted in FIG. 20. […] The percentage of CD4 T cell proliferation is also shown in Panel C for a variety of other binding compounds.

Daudi cells [2] = assay: NAD+ assay in Daudi cells; type: cell-based; settings: presence of NMN compared to absence of NMN, FIG. 19
Experimental: (§1) Studies were performed to assess whether blocking the ecto-NMNase activity of CD38 with the subject binding compounds causes an increase in the NMN-mediated increase in NAD+ within the CD38 expressing B cell lines Ramos and Daudi. The assay is based on the enzymatic cycling reaction in which NAD+ is reduced to NADH. NAD+ reacts with a colorimetric probe that produces a colored product. The intensity of the color is proportional to the NAD+ and NADH within a sample. Oxidized form is selectively destroyed by heating in basic solution, while reduced form is not stable in acidic solution.
(§2) Daudi or Ramos cells (2×10^5) were treated with antibody at a 5 nM concentration for 14 h. NAD+ was measured using an NAD+/NADH cycling assay kit (Cell Biolabs #MET-5014). Briefly, cell lysates were prepared in extraction buffer by homogenization, centrifugation at 4° C. at 14,000 rpm for 5 minutes, and deproteination through a 10 kDa spin filter. […] After 3 h, color development was read at 450 nm.
(§3) Daudi or Ramos cells (2×10^5) were treated with antibody at a 5 nM concentration in the presence or absence of 400 nM NMN for 14 h. NAD+ was measured using the NAD+/NADH cycling assay kit (Cell Biolabs #MET-5014). […] After 3 h, color development was read at 450 nm.

[3] = test system: CD38 negative cell lines (293-Freestyle, HL-60, K562, CHO); assay: Off target cell binding by flow cytometry (Example 10); settings: K562 and HL-60 cells, FIG. 23
Experimental: On target and off target cell binding of a bispecific, bivalent three chain binding compound as depicted in FIG. 11, Panel D, was assessed. The binding compound was formulated at a concentration of 0.97 mg/mL in 20 mM Citrate, 100 mM NaCl, pH 6.2. Test substance was stored frozen at −80° C. until the day of use. Binding to CD38 positive and CD38 negative cell lines was assessed using flow cytometry. The CD38 positive cell lines used were Daudi, Ramos, and a CHO cell line transfected to stably express CD38. The CD38 negative cell lines used were 293-Freestyle, HL-60, K562, and CHO.
The average MFI of unstained wells was set as the background signal. To calculate fold over background of each experimental sample, the experimental sample MFI was divided by the average background MFI.

Daudi cells [4] = assay: Direct apoptosis / direct cytotoxicity of Daudi cells; type: cell-based
Experimental: (§4) Induction of direct apoptosis was assessed by Annexin-V and 7-AAD staining using flow cytometry. Annexin-V is commonly used to detect apoptotic cells by its ability to bind to phosphatidylserine, a marker of apoptosis when it is present on the outer leaflet of the plasma membrane. 7-AAD binds to double stranded DNA that is taken up by dying or dead cells with compromised membranes. The CD38 positive cell lines used in this study were Daudi and Ramos cells.
(§5) A quad gate was used to distinguish between early apoptotic (Annexin-V+, 7-AAD−), late apoptotic (Annexin-V+, 7-AAD+), and viable cells (Annexin-V−, 7-AAD−). Concentration of binding compound was plotted against percent viability in Graphpad Prism 8. The resulting plot was fitted to a non-linear regression to determine EC50.

Ramos cells [5] = assay: Direct apoptosis of Ramos cells; type: cell-based; settings: Annexin-V and 7-AAD staining, flow cytometry, FIG. 24
Experimental: as §4, §5

[6] = test system: Xeno-GvHD in NOD scid gamma (NSG) mice; assay: Xeno-GvHD model, human PBMCs in NSG mice; type: in vivo
Experimental: Xeno-GvHD was induced using 1.5 grays of radiation to facilitate colonization of human PBMCs in NOD scid gamma (NSG) mice. […] Survival was monitored until day 50. GvHD clinical score was determined mainly based on weight loss, posture, activity and fur texture. […] In contrast, the animals treated with PBMCs+PBS or PBMCs+mCD38 lost body weight quickly and were sacrificed before day 25 because of more than 20% weight loss. The survival, body weight, and clinical score data are shown in FIGS. 30, 31 and 32, respectively.

Ramos cells [7] = assay: NAD+ assay in Ramos cells; type: cell-based; settings: presence of NMN compared to absence of NMN, FIG. 19
Experimental: as §1, §2, §3

[8] = target: T1, human CD38 expressed on CHO cells (Homo sapiens, UniProt P28907); assay: Cell-based CD38 hydrolase activity, UniAb mixtures, bivalent and tetravalent formats (FIGS. 7, 8, 12, 16); settings: tetravalent UniAbs with human IgG4 Fc region, FIG. 16; read-out: IC50, inhibition of hydrolase activity of human CD38 expressed on CHO cells
T1 construct: expressed in transfected cells; host or cells: CHO cells stably expressing human CD38
Experimental: After incubation, ε-NAD^+ (BioLog Cat. No. N010) was added to a final concentration of 150 μM. Production of a fluorescent product was measured at 1 hour (ex 300 nm/em 410 nm) using a Spectramax i3x plate reader (Molecular Devices). Hydrolase enzyme inhibition was assessed by comparing signal from UniAb™-treated wells to the percent of total enzymatic activity observed when CD38 protein was treated with an isotype control antibody (max).

NC(=O)c1ccc[n+]([C@@H]2O[C@H](COP(=O)([O-])O)[C@@H](O)[C@H]2O)c1 [NMN, nicotinamide mononucleotide, reference compound]
sirtuin activity, luminescence (in words) ([1]; NMN 400 nM, FIG. 28): did not result in an increase in sirtuin activity

Daratumumab: antibody specific for human CD38, approved in 2015 for Multiple Myeloma
percentage of CD4 T cell proliferation in MLR (in words) (CD4 T cells; FIG. 20, Panel A): did result in an increase
IFNγ production in MLR (in words) (CD4 T cells; compared to IgG4 istp control, FIG. 20, Panel B): caused an increase

TNB-738: bispecific, bivalent three chain anti-human CD38 molecule, FIG. 11 Panel D, comprising F11A and F12A VH sequences
sirtuin activity, luminescence (in words) ([1]; NMN 5 nM, 50 nM or 500 nM, FIG. 29): further increased in a dose-dependent manner by the presence of increasing concentrations of NMN
sirtuin activity, luminescence (in words) ([1]; NMN 400 nM, FIG. 28): further increased by the presence of NMN
sirtuin activity, luminescence (in words) ([1]; no NMN, FIG. 26): dose-dependent increase in sirtuin activity
intracellular NAD+ levels (in words) (Daudi cells [2]): remarkably increased the NAD+ levels
off target cell binding (in words) [3]: does not bind
direct apoptosis of Daudi cells (in words) (Daudi cells [4]; Annexin-V and 7-AAD staining, flow cytometry, FIG. 24): did not cause direct apoptosis
direct apoptosis of Ramos cells (in words) (Ramos cells [5]): did not cause direct apoptosis
prevention of GvHD (in words) ([6]; clinical score based on weight loss, posture, activity and fur texture): prevention of GvHD; also recorded: able to successfully prevent GvHD
survival ([6]; day 50 after PBMC injection, treatments twice weekly until day 18): 100%
intracellular NAD+ levels (in words) (Ramos cells [7]): remarkably increased the NAD+ levels

Isatuximab: antibody against CD38 in clinical trials for Multiple Myeloma; VH SEQ ID NO: 30, VL SEQ ID NO: 31 [reference compound]
intracellular NAD+ levels (in words) (Daudi cells [2]): not Daudi
direct cytotoxicity of Daudi cells (in words) (Daudi cells [4]; FIG. 10): potently kill Daudi cells
direct apoptosis of Daudi cells (in words) (Daudi cells [4]; in 24 hours, stated with the NAD+ study): causes direct apoptosis
intracellular NAD+ levels (in words) (Ramos cells [7]): subtle difference in NAD+ increase

B1: CD38F12A_2GS_CD38F11A: tetravalent bispecific UniAb, FIG. 11 Panel B format, distal VH CD38F12A, GS linker, proximal VH CD38F11A, human IgG4 Fc region (antibody)
heavy: GVQLVESGGGLVQPGGSLRLSCTASGFTFSSSWMSWVRQAPGKGLEWVANIKQDGSEKDYVDSAKGRFTISRDNAKNSLYLQMNNLRAEDTAVYYCARDRRGPFFHIWGQGTLVTVSSGGGGSQVQLVESGGGVVQPGRSLRLSCAASGFTFSSYGMHWVRQAPGKEREWVAVISDDGSNKYYADSVKGRFTISRDNSKNTLYLQMNSLRVEDTAVYYCAKDRGTMRVVVYDTLDIWGQGTLVTVSS
modifications: left off: a dimerising Fc or GST
IC50 [8]: 4.5 nM
